Measured values from paper PMC2942996 (Journal of molecular biology, 2010).

B1: isoprene synthase (PcISPS) (Populus tremula x Populus alba; C533W/K308R/N59D) (protein)
chain: EARRSADYEPNSWDYDFLLSSDTDESIEVYKDKAKKLEAEVRREINNEKAEFLTLLELIDNVQRLGLGYRFESDIRRALDRFVSSGGFDGVTKTSLHATALSFRLLRQHGFEVSQEAFSGFKDQNGNFLENLKEDTKAILSLYEASFLALEGENILDEARVFAISHLKELSEEKIGKELAEQVNHALELPLHRRTQRLEAVWSIEAYRKKEDANQVLLELAILDYNMIQSVYQRDLRETSRWWRRVGLATKLHFARDRLIESFYWAVGVAFEPQYSDCRNSVAKMFSFVTIIDDIYDVYGTLDELELFTDAVERWDVNAINDLPDYMKLCFLALYNTINEIAYDNLKDKGENILPYLTKAWADLCNAFLQEAKWLYNKSTPTFDDYFGNAWKSSSGPLQLIFAYFAVVQNIKKEEIENLQKYHDIISRPSHIFRLCNDLASASAEIARGETANSVSCYMRTKGISEELATESVMNLIDETWKKMNKEKLGGSLFAKPFVETAINLARQSHCTYHNGDAHTSPDELTRKRVLSVITEPILPFER

Legend:
[1] = target: isoprene synthase (PcISPS) (Populus tremula x Populus alba, UniProt Q9AR86, C533W/K308R/N59D); assay: competitive inhibition of isoprene formation, SBSE GC-MS assay; format: biochemical
enzyme kinetics = substrate: CC(C)=CCOP(=O)(O)OP(=O)(O)O; assay: enzyme kinetics; format: biochemical, Populus tremula x Populus alba; conditions: Mg2+ active site

Row | Molecule | Ki [1] [µM] | Km (enzyme kinetics) [µM]
1 | CC(C)=CCC/C(C)=C/COP(=O)(O)OP(=O)(O)O [GPP, geranyl diphosphate] | 550 | 
2 | B1 |  | 3000
